Test results reported in US20120276122A1, “METHODS FOR DIAGNOSIS AND TREATMENT OF CELLULAR PROLIFERATIVE DISORDERS” (Sanford-Burnham Medical Research Institute, priority 2010, published 2012).

Tests used:
[1] = tested on: Jun2 promoter; test: Jun2 promoter-luciferase assay (ATF2 transcriptional activity); type: cell-based; conditions: for Jun2-luciferase activity: SCC9
Description: (§1) C) is a photograph depicting coverslip-grown SCC9 cells that were co-treated with 40 ng/ml leptomycin B (LMB) and ETO overnight, and were subsequently fixed and immunofluorescently stained as indicated. D) is a gel depicting SCC9 cells transfected with the Jun2 promoter-luciferase construct and assayed for luciferase activity prior to (Control) or after ETO treatment. E) is a bar graph depicting luciferase activity of mitochondria (M) purified from ETO-treated SCC9 cells subject to proteolysis protection assay with titrated concentrations of trypsin: 0.2 (1), 0.1 (2), 0.05 (3), 0.025 (4), or 0.0125 (5) μg in the absence or presence of 1% Triton X-100 (TX) detergent. Scale bars represent 10 μm.
FIG. 3A) is an image depicting coverslip-grown SCC9 cells treated with 1 or 5 μM PKCε translocation inhibitor overnight, and immunofluorescently stained with indicated antibodies. B) is a photograph depicting coverslip-grown SCC9 cells treated with 10 nM siRNA targeting PKCε overnight were immunofluorescently stained with indicated antibodies. […] F) is a photograph depicting coverslip-grown SCC9 cells were transfected with HA-tagged wildtype ATF2 (WT), ATF2T52A or ATF2T52E, and subsequently immunofluorescently stained with indicated antibodies. G-H) is a series of bar graphs that show quantitation of (Left) SCC9 cells transfected with Jun2 promoter-luciferase construct and empty vector (EV) or caPKCε, assayed for luciferase activity after ETO treatment. (Right) SCC9 cells stably knocked down for ATF2 with a 3′-UTR-targeted shRNA, reconstituted with Jun2 promoter-luciferase construct and ATF2 (WT), ATF2T52A or ATF2T52E and subsequently assayed for luciferase activity. Scale bars represent 10 μm.

[2] = target: T1, PKCε (Homo sapiens, UniProt Q02156); test: In vitro kinase assay, PKCε phosphorylation of GST-tagged ATF2 50-100 peptide; type: biochemical
T1 sequence (Q02156 1-737): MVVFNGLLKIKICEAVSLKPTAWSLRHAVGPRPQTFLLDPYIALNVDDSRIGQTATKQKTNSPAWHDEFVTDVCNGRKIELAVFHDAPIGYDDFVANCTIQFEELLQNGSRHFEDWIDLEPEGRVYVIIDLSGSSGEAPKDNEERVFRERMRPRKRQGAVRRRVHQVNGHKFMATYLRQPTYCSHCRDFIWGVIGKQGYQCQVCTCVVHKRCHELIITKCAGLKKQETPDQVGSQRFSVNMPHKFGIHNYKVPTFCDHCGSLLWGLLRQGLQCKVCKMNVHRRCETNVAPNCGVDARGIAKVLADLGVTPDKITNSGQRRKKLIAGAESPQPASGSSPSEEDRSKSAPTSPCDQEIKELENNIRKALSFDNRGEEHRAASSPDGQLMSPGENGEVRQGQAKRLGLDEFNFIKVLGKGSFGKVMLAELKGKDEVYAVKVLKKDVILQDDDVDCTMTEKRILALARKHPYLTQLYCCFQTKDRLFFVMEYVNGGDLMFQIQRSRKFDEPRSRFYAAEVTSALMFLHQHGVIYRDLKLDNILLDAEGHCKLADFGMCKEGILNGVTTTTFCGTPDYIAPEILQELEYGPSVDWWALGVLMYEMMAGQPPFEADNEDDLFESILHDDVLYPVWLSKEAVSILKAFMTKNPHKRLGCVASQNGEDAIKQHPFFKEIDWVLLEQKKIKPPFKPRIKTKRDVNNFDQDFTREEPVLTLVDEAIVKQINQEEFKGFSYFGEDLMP
Description: To determine whether Thr52, the predicted PKCε site for phosphorylation of ATF2, regulates mitochondrial translocation of ATF2, phosphorylation of ATF2 by PKCε in vitro was assessed, as well as the localization of ATF2^T52A (a non-phosphorylatable alanine phosphomutant) and ATF2^T52E (a glutamic acid phosphomimic). […] This phosphorylation is inhibited upon addition of PKCε catalytic inhibitor, Gö6850 (FIG. 3E). […] Collectively, these findings establish that ATF2 mitochondrial localization is regulated by PKCε through phosphorylation at T52.

[3] = tested on: ATF2 pT52; test: Immunoblot densitometry of pT52/Total ATF2; type: cell-based; conditions: SCC9, etoposide treatment
Source text: B) Control or ATF2 -knocked down LU1205 cells were subject to immunoblot analysis with indicated antibodies. […] D) is an image showing control or ETO-treated coverslip-grown LU1205, 501Mel or UACC903 cells immunofluorescently stained with indicated antibodies.

[4] = tested on: SCC9 cells; test: Annexin-V / propidium iodide staining and FACS analysis (cell death); type: cell-based; conditions: SCC9, 5 μM, overnight, representative FACS plot
Description: Cells were stained with Annexin-V and subject to FACS analysis. n=10,000 cells per replicate; 3 replicates per condition were performed. •: p=0.0001; #: p<0.0001.
For FACS analyses, n=10,000 cells per replicate over 3 independent replicates.

[5] = tested on: SCC9 cells; test: HK1 co-localization with mitochondria (immunostaining and MitoTracker); type: cell-based; conditions: SCC9, 5 μM etoposide overnight
Source text: The arrowheads indicate HA-positive cells. Scale bars represent 10 μm.

[6] = tested on: PKCε pS729; test: Immunoblot of pS729 PKCε (active PKCε); type: cell-based; conditions: SCC9, 5 μM overnight
[7] = tested on: SCC9 cells; test: ATF2 mitochondrial localization, immunofluorescent staining of coverslip-grown cells; type: cell-based; conditions: for cells with ATF2 accumulation at the mitochondria: SCC9, 5 μM etoposide overnight, 3 replicate coverslips
Description: as §1, with “FIG. 1A) is an image depicting control, 5 μM etoposide-treated (ETO, overnight treatment), UVC-treated (20 J/m^2), ionizing radiation-treated (IR, 5Gy), or 40 ng/ml leptomycin B (LMB) and ETO co-treated SCC9 cells grown on coverslips were immunofluorescently stained for HSP60,ATF2 or DNA. Immunostained control and ETO panels represent 89±4% and 64±11%, respectively, of the cells from 3 independent replicate coverslips per condition (n>100 cells counted per replicate). […] C)” for “C)”
Following indicated treatments, coverslip-grown cells were fixed in fixation buffer containing 4% formaldehyde and 2% sucrose in phosphate buffered saline (PBS) for 20 minutes at room temperature. After fixation, coverslips were rinsed twice in PBS and permeabilized in permeabilization buffer (0.4% Triton X-100 (TX-100)/0.4% bovine serum albumin (BSA) in PBS) for 20 minutes. Primary antibodies were applied at 1:250 dilution in staining buffer (0.1% TX-100/0.1% BSA in PBS) overnight at 4° C. in a humid chamber. Coverslips were subsequently subject to 5 standing washes in wash buffer (0.2% TX-100/0.2% BSA in PBS, 5 minutes per wash). Secondary antibodies (Alexa Fluor secondary 350, 488 or 568, Invitrogen) were applied at 1:250 dilution in staining buffer for 2-3 hours at room temperature in a humid chamber in the dark. Prior to mounting with Vectorshield containing DAPI (Vector Laboratories, CA), coverslips were washed twice additionally in wash buffer. Immunofluorescent analysis was conducted on an Olympus TH4-100 fluorescent microscope. At least 3 Z-planes per field were captured and analyzed using Slidebook V.4.1, and Z-projection images of average intensity were constructed using ImageJ V.1.43u.

[8] = tested on: melanoma; conditions: syngeneic mice, human melanoma xenografts; cited from earlier work
[9] = tested on: ATF2; conditions: cited from earlier work; for ATF2 nuclear exclusion: melanoma cells
[10] = tested on: melanoma cells; conditions: melanoma cells versus melanocytes; cited from earlier work

## CN(C)CCCn1cc(C2=C(c3c[nH]c4ccccc34)C(=O)NC2=O)c2ccccc21 [Gö6850]
[1]
  Jun2-luciferase activity: reduce Jun2-luciferase activity to similar extents as knockdown of ATF2
[2]
  PKCε phosphorylation of WT ATF2 peptide: inhibited

## COc1cc([C@@H]2c3cc4c(cc3[C@@H](O[C@@H]3O[C@@H]5CO[C@@H](C)O[C@H]5[C@H](O)[C@H]3O)[C@H]3COC(=O)[C@H]23)OCO4)cc(OC)c1O [etoposide]
[1]
  Jun2-luciferase activity: reduce Jun2-luciferase activity to similar extents as knockdown of ATF2
[1]; SCC9, after ETO treatment
  reduction of luciferase activity driven by the Jun2 promoter: ~50%
[3]
  levels of pT52: lower
[4]
  Annexin V-negative (AV−) percentage: 89.5%
  Annexin V-positive (AV+) percentage: 11.5%
[5]
  HK1 co-localization with mitochondria: enhanced
[6]
  PKCε phosphorylation on Ser729: decreased
[7]
  cells with ATF2 accumulation at the mitochondria: ~64%
[7]; listed as ETO
  cells with ATF2 accumulation at the mitochondria: 64±11%

## CCC(=C/[C@H](C)C/C=C/C(C)=C/[C@@H](C)C(=O)[C@@H](C)[C@H](O)[C@@H](C)C/C(C)=C/C(=O)O)/C=C/[C@@H]1OC(=O)C=C[C@@H]1C [leptomycin B]
[7]; SCC9, 40 ng/ml leptomycin B with ETO
  mitochondrial accumulation of ATF2 following etoposide treatment: prevented mitochondrial accumulation of ATF2
[7]; SCC9, leptomycin B pre-treatment 40 ng/ml 6 hours, then 5 μM PKCε-i
  ATF2 mitochondrial translocation following inhibition of PKCε: efficiently blocked

## ATF2 50-60 peptide: 10 amino acid long peptide derived from ATF2 (amino acids 50-60), contains T52 (EMTLKFGPARN; UniProt P15336 50-60, looked up, fragment)
[8]
  melanoma growth: inhibit melanoma growth in syngeneic mice
[9]
  ATF2 transcriptional activity: inhibit ATF2 transcriptional activity
  ATF2 nuclear exclusion: caused nuclear exclusion of ATF2
[10]
  sensitization to apoptosis: sensitized melanoma cells (but not melanocytes) to apoptosis

## ATF2 50-100 peptide: 50 amino acid long peptide derived from ATF2 (amino acids 50-100), contains T52 (EMTLKFGPARNDSVIVADQTPTPTRFLKNCEEVGLFNELASPFENEFKKAS; UniProt P15336 50-100, looked up, fragment)
[8]
  melanoma growth: inhibit melanoma growth in syngeneic mice
[9]
  ATF2 transcriptional activity: inhibit ATF2 transcriptional activity
  ATF2 nuclear exclusion: caused nuclear exclusion of ATF2
[10]
  sensitization to apoptosis: sensitized melanoma cells (but not melanocytes) to apoptosis
